# Results as given in patent publication US10820591B2, “Substituted sulfonyl amides for controlling animal pests” (Bayer Aktiengesellschaft, priority 2016, dated 2020).
# Test system: Meloidogyne incognita
# Experiment: Meloidogyne incognita test (sand, lettuce, gall formation)
# Format: in vivo
# Conditions: Meloidogyne incognita, 336 h, 20 ppm, after 14 days; read-out: nematicidal efficacy (formation of galls)
# Procedure, shortened: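 Vessels held sand, diluted compound solution, M. incognita egg/larvae suspension and lettuce seeds, and the plants grew for 14 days. Efficacy in % came from root gall formation: 100% means no galls, 0% means galls equal to the untreated control.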
row,Compound,pest or weed control at 20 ppm [%]
1,COc1ccc(S(=O)(=O)NC(=O)c2ncn(-c3cccc(C(F)(F)F)c3)c2Cl)cc1 [I-437],90
2,COc1ccc(Cl)c(S(=O)(=O)NC(=O)c2cn(-c3cc(Cl)nc(Cl)c3)c(Cl)n2)c1 [I-439],90
3,O=C(NS(=O)(=O)c1ccccc1Cl)c1nc(Br)n(CCC(F)(F)F)c1Cl [I-440],100
4,COc1ccc(Cl)c(S(=O)(=O)NC(=O)c2cn(-c3cc(Cl)cc(Cl)c3)c(Br)n2)c1 [I-441],100
5,COc1ccc(Cl)c(S(=O)(=O)NC(=O)c2nc(Br)n(-c3cc(Cl)cc(Cl)c3)c2Br)c1 [I-442],100
6,COc1ccc(Cl)c(S(=O)(=O)NC(=O)c2cn(-c3cc(Cl)cc(Cl)c3)c(Cl)n2)c1 [I-443],100
7,O=C(NS(=O)(=O)c1ccccc1Cl)c1cn(-c2cc(Cl)cc(Cl)c2)c(Cl)n1 [I-444],100
8,CSc1nc(C(=O)NS(=O)(=O)c2ccccc2Cl)cn1CCC(F)(F)F [I-445],90
9,CSc1nc(C(=O)NS(=O)(=O)c2ccccc2Cl)c(Cl)n1CCC(F)(F)F [I-446],90
10,O=C(NS(=O)(=O)c1ccccc1Cl)c1cc(-c2cc(Cl)cc(Cl)c2)n(CC(F)(F)F)n1 [I-447],90
11,COc1ccc(Cl)c(S(=O)(=O)NC(=O)c2cc(-c3cc(Cl)cc(Cl)c3)n(CC(F)(F)F)n2)c1 [I-448],100
12,CCOc1ccc(Cl)c(S(=O)(=O)NC(=O)c2nc(Cl)n(CCC(F)(F)F)c2Cl)c1 [I-449],100
13,CC(C)Oc1ccc(Cl)c(S(=O)(=O)NC(=O)c2nc(Cl)n(CCC(F)(F)F)c2Cl)c1 [I-450],100
14,O=C(NS(=O)(=O)c1c(Cl)cccc1Cl)c1nc(Cl)n(CCC(F)(F)F)c1Cl [I-451],90
15,Cc1ccccc1S(=O)(=O)NC(=O)c1nc(Cl)n(CCC(F)(F)F)c1Cl [I-452],100
16,CSc1cccc(Cl)c1S(=O)(=O)NC(=O)c1nc(Cl)n(CCC(F)(F)F)c1Cl [I-453],100

row,Compound,pest or weed control at 20 ppm [%]
1,COc1ccc(Cl)cc1S(=O)(=O)NC(=O)c1nc(Cl)n(CCC(F)(F)F)c1Cl [I-454],100
2,COc1ccc(Br)c(S(=O)(=O)NC(=O)c2nc(Cl)n(CCC(F)(F)F)c2Cl)c1 [I-455],100
3,COc1ccc(F)c(S(=O)(=O)NC(=O)c2nc(Cl)n(CCC(F)(F)F)c2Cl)c1 [I-457],100
4,O=C(NS(=O)(=O)c1cc(C(F)(F)F)ccc1Cl)c1nc(Cl)n(CCC(F)(F)F)c1Cl [I-458],100
5,CCOc1ccc(Cl)c(S(=O)(=O)NC(=O)c2nc(Cl)n(C3CC3C(F)(F)F)c2Cl)c1 (stereo not shown) [I-459],100
6,O=C(NS(=O)(=O)c1c(Cl)cccc1Cl)c1nc(Cl)n(C2CC2C(F)(F)F)c1Cl (stereo not shown) [I-461],100
7,Cc1ccccc1S(=O)(=O)NC(=O)c1nc(Cl)n(C2CC2C(F)(F)F)c1Cl (stereo not shown) [I-462],100
8,CSc1cccc(Cl)c1S(=O)(=O)NC(=O)c1nc(Cl)n(C2CC2C(F)(F)F)c1Cl (stereo not shown) [I-463],100
9,COc1ccc(Cl)cc1S(=O)(=O)NC(=O)c1nc(Cl)n(C2CC2C(F)(F)F)c1Cl (stereo not shown) [I-464],90
10,COc1ccc(Br)c(S(=O)(=O)NC(=O)c2nc(Cl)n(C3CC3C(F)(F)F)c2Cl)c1 (stereo not shown) [I-465],100
11,CCc1ccc(C)c(S(=O)(=O)NC(=O)c2nc(Cl)n(C3CC3C(F)(F)F)c2Cl)c1 (stereo not shown) [I-466],100
12,COc1ccc(F)c(S(=O)(=O)NC(=O)c2nc(Cl)n(C3CC3C(F)(F)F)c2Cl)c1 (stereo not shown) [I-467],100
13,O=C(NS(=O)(=O)c1cc(C(F)(F)F)ccc1Cl)c1nc(Cl)n(C2CC2C(F)(F)F)c1Cl (stereo not shown) [I-468],100
14,O=C(NS(=O)(=O)c1ccccc1Cl)c1nc(Cl)n(C2CC2C(F)(F)F)c1Cl (stereo not shown) [I-469],100
15,CC(C)S(=O)(=O)NC(=O)c1cn(C)c(C(F)(F)F)n1 [I-471],90
